Entries after “also recorded” stand apart in the source; their conditions may differ.

The values that follow come from patent US20030228281A1, “Use of mutant herpes viruses and anticancer agents in the treatment of cancer” (priority 2000, published 2003).

One experiment concerns the target T1, ribonucleotide reductase (Homo sapiens, UniProt P23921).
T1 construct: 50 mM HEPES (pH 7.2), and 100 μl extract (0.2-0.7 mg protein); endogenous in cells
T1 sequence (P23921 1-792): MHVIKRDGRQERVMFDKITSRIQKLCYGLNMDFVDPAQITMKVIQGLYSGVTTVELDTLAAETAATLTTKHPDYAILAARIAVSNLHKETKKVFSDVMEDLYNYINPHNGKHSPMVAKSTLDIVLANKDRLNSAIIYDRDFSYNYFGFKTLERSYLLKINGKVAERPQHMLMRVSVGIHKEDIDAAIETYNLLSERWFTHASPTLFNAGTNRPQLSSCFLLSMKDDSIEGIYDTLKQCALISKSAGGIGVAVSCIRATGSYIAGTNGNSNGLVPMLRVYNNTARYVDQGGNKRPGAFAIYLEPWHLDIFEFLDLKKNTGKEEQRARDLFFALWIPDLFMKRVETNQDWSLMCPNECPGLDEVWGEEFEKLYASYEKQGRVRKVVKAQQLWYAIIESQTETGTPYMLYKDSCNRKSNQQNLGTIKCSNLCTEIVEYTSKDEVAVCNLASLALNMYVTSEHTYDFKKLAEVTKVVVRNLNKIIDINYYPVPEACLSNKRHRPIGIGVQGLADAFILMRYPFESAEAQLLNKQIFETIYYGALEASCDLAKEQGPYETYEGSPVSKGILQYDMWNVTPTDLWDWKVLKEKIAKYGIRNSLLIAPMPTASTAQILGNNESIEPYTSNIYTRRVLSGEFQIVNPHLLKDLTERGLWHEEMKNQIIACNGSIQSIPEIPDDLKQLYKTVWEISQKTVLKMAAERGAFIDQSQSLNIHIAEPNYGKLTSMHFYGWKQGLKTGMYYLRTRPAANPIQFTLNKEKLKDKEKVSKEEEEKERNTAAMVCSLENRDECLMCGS
Kind of experiment: CDP reductase assay on HCT8 cell extracts incubated with FdUMP. It counts as biochemical. The protocol:
Cells grown in 250 cm^2-flasks were trypsinized and washed twice in ice-cold PBS. Cells were centrifuged at 300×g for 5 min at 4° C. and resuspended in 3 volumes of Low Salt Extraction Buffer (10 mM HEPES, pH 7.2, 2 mM DTT). Viable cell count of the resuspension was determined by trypan blue exclusion. After 30 min incubation on ice, the cell suspension was drawn 10× through a 28G½ needle. The crude homogenate was centrifuged at 100,000×g for 60 min at 4° C. to remove cellular debris. The supernatant fraction was dialyzed against 1,000 volumes of the Low Salt Extraction Buffer for 4 hours with one buffer change after 2 hours using dialysis cassettes with a molecular weight cut-off of 10,000 (Slide-A-Lyzer Dialysis Cassettes, Pierce, Rockford, Ill.). The dialyzed extract was snap-frozen in liquid nitrogen and stored at −80° C. until analysis. All extraction procedures were performed at 4° C.
Activity of ribonucleotide reductase was determined by a modified method of Steeper and Stuart (Steeper et al., Anal. Biochem. 34:123-130, 1970). Conversion of CDP to dCDP was monitored using [^14C]CDP (53 mCi/mmol, Movarek Biochemicals, Inc.) as substrate and rattlesnake venom from Crotalus adamanteus (Sigma) to hydrolyze nucleotides to nucleosides. The reaction mixture contained the following concentrations of ingredients in a final volume of 150 μl: 40 μM CDP, 10 μM [^14C]CDP (0.08 μCi), 6 mM DTT, 4 mM magnesium acetate, 2 mM ATP, 50 mM HEPES (pH 7.2), and 100 μl extract (0.2-0.7 mg protein). The enzyme reaction was carried out for 30 min at 37° C. and stopped by incubation at 100° C. for 4 min. Nucleotides were hydrolyzed by adding 50 μl carrier dCMP (6 mM dCMP, 2 mM MgCl2, 6 mM Tris-HCl, pH 8.8) and 25 μl snake venom suspension (50 mg/ml). After 3 hours incubation at 37° C., the reaction mixture was heat-inactivated by boiling for 4 min. Heat-precipitated material was removed by centrifugation at 14,000×g for 10 min at room temperature. [^14C]deoxycytosine was separated from [^14C]cytosine by covalent chromatography using phenylboronic acid-columns (BondElut PBA, Varian, Harbor City, Calif.). Triethenolamine Buffer (pH 10) was added to the supernatant fraction to a final concentration of 0.4 M and 1 ml of this mixture was applied to the column. Fractions were collected and measured for radioactivity by liquid scintillation spectrometry (LS 60001C Liquid Scintillation System, Beckman Instruments, Inc., Fullerton, Calif.). One unit of enzyme activity was defined as conversion of 1 nmol CDP to the product dCDP in 1 hour at 37° C.

The subject of experiment [1] is OCUM-2MD3 peritoneal tumor. Nature of the experiment: Murine xenograft model of gastric carcinomatosis, intraperitoneal treatment. It counts as in vivo, athymic nude mice. As to conditions: 0.1 mg/kg MMC i.p., 4 weeks. From the text: An established murine xenograft model of gastric carcinomatosis was used as previously described (Bennett et al., Journal of Molecular Medicine 78:166-174, 2000; Yashiro et al., Clin. Exp. Metastasis 14:43-54, 1996). Intraperitoneal (i.p.) injection of 2×10^6 OCUM-2MD3 cells reliably develops disseminated peritoneal tumor that seeds the omentum, small and large bowel mesentery, diaphragm, gonadal fat and hepatic hilum. Macroscopic nodules are present within three days after injection, and the development of overwhelming tumor burden, bloody ascites and cachexia occurs by four weeks post-injection. To assess tumor burden, animals were eviscerated at sacrifice and peritoneal tumor was stripped from associated abdominal organs as previously described. Tumor burden was then assessed by weight.
Animals were all injected i.p. with 2×10^6 OCUM-2MD3 cells and treated 3d later. […] Animals were sacrificed 4 weeks later and tumor burden was assessed as described (Bennett et al., Journal of Molecular Medicine 78:166-174, 2000).

The test system of another experiment is GADD34 mRNA (OCUM cells). Kind of experiment: Northern hybridization for GADD34 in cells treated with MMC. It counts as cell-based, human. As to conditions: for Increase in GADD34 band intensity vs negative control: high dose MMC 0.04 μg/cc; for GADD34 band: low dose MMC 0.005 μg/cc. The protocol:
Cells were cultured with 12 cc culture media containing 0 μg/ml (untreated), 0.005 μg/ml (low dose), or 0.04 μg/ml (high dose) of Mitomycin-C (Bristol Laboratories, Princeton, N.J.). Cells were harvested by trypsinization at 24 and 48 hours. Total RNA was prepared using a total RNA isolation system (Promega, Madison, Wis.) and RNA content was measured by optical density at 260 nm. 7 μg of RNA per sample was loaded in a denaturing 1.2% agarose gel. Electrophoretic separation, RNA transfer to a nitrocellulose membrane (Intergen, Purchase, N.Y.), hybridization (50% formamide at 40° C.), and autoradiographic identification were done by standard techniques. The cDNA clone GADD34 containing a 2.4 kb insert was provided by Dr. A. Fomace, Jr, and the cDNA clone a-actin containing a 1.1 kb insert was acquired from ATCC (Manassas, Va.)(Hollander et al., J. Biol. Chem. 272:13731-13737, 1997). cDNA that had been excised from plasmid vectors was labelled with [^32P]dCTP by the random-primer labelling method (Stratagene, La Jolla, Calif.).

Another experiment has as its system MKN-45-P cells. Kind of experiment: MTT cytotoxicity with Chou-Talalay combination analysis. It counts as cell-based, human. The procedure: (§1) Cytotoxicity assays were performed by plating 1×10^4 cells/well into 96 well assay plates (Costar, Corning Inc., Corning, N.Y.). […] These ratios were determined by estimating the ED50 for each drug in initial experiments and by using these doses to determine the ratio of combination therapy. Percent cell survival for each group (vs. controls) was calculated 5d after treatment using a standard MTT (3-(4,5-dimethylthiazol-2-yl)-2,5-diphenyl-2H tetrazolium bromide) bioassay. A micro-plate reader was used to evaluate for the presence of the MTT-formazan product at 550 nm. Background optical density (OD) was subtracted from the OD readings of all samples. Cell viability was then calculated by dividing the mean absorbance (OD)(n=6) of the treated wells by the mean absorbance (OD)(n=6) of the untreated (control) wells.
(§2) This method defines the expected additive effect of two agents and then quantifies synergism or antagonism by determining how much the combination effect differs from the expected additive effect. The equations and computer software used for data analysis have been described in detail elsewhere (Chou, T., editors. Academic Press, New York. 61-102, 1991; Chou et al., Advances in Enzyme Regulation 22:27-55, 1984; Chou et al., Manual and Software for IBM-PC 1987; Chou, J., Academic Press, New York 223-244, 1991). The combination index equation is used to precisely analyze two-drug combinations. Interpretation of CI values are defined such that a CI=1 indicates an additive effect, while a CI<1 and a CI>1 indicate synergism and antagonism, respectively. Cytotoxicity data obtained from the experiments described above were used in the Chou-Talalay analysis. […] Based on the actual experimental data, computer software was used to calculate serial CI values over an entire range of effect levels (Fa) from 5-95%. […] Data were also analyzed by the isobologram technique, which is dose-oriented. The axes on an isobologram represent the doses of each drug. For any given Fa value, two points on the x and y axes are chosen that correspond to the doses of each drug necessary to generate that given Fa value. The straight line drawn between these two points corresponds to the possible combination doses that would be required to generate the same Fa value, assuming that the interaction between the two drugs is strictly additive. The observed experimental concentrations actually required to achieve a given Fa value are then added to the plot. If these points lie on the straight line then the effect is additive at that Fa value. If the point lies to the left of the straight line then the effect is synergistic, and if the point lies to the right of the straight line then the effect is antagonistic at that Fa value. Another calculation available using the combination index method is the dose-reduction index (DRI). The DRI is a determination of the fold-dose reduction allowed for each drug when given in synergistic combination, as compared to the concentration of single agent therapy needed to achieve the same effect level. A DRI>1 signifies a favorable reduction in toxicity while still maintaining therapeutic efficacy.

The test system of the next experiment is OCUM-2MD3 cells. The description is as above. It counts as cell-based, human. The protocol: as §1, §2

Consider `O=c1[nH]c(=O)n([C@H]2C[C@H](O)[C@@H](COP(=O)(O)O)O2)cc1F` [FdUMP, 2′-deoxy-5-fluorouridine 5′ monophosphate], for which, at ribonucleotide reductase (0.001 mM FdUMP), the Activity came out at 77.0%, the RR activity is on record as 0.47 ± 0.02 nmol dCDP / h and testing at 1 µM gave an inhibition of 23%. Besides, at ribonucleotide reductase (0.01 mM FdUMP), the Activity was determined as 73.8%, the RR activity is listed as 0.45 ± 0.02 nmol dCDP / h and at 10 µM the inhibition was 26.2%. For the same compound, on ribonucleotide reductase (0.1 mM FdUMP), the Activity stood at 70.5%, the RR activity stood at 0.43 ± 0.03 nmol dCDP / h and testing at 100 µM gave an inhibition of 29.5%. For the same compound, at ribonucleotide reductase (1 mM FdUMP), the Activity is on record as 39.3%; the RR activity is reported as 0.24 ± 0.02 nmol dCDP / h; the “RR inhibition in words” value is given as “Substantial enzyme inhibition”; the inhibition – broadly, the percentage by which the read-out fell short of the control – at 1000 µM is 60.7%. Also, at ribonucleotide reductase (0.001 to 0.1 mM FdUMP), the RR activity remaining is listed as 80 to 70%. On ribonucleotide reductase (10 mM FdUMP), this compound showed an Activity of 22.9%, an RR activity of 0.14 ± 0.01 nmol dCDP / h and an inhibition at 10000 µM of 77.1%.
For `CO[C@@]12[C@H](COC(N)=O)C3=C(C(=O)C(C)=C(N)C3=O)N1C[C@@H]1N[C@@H]12` [MMC, Mitomycin C], the “Mean peritoneal tumor burden (±SEM)” value in experiment [1] is on record as 1490 (±310) mg. Further, the “Increase in GADD34 band intensity vs negative control” value in the experiment on GADD34 mRNA (OCUM cells) (24 hours) is 2.49 fold; with GADD34 mRNA (OCUM cells) (48 hours), 3.21 fold. Further, the GADD34 band result in the experiment on GADD34 mRNA (OCUM cells) (24 hours) is on record as “did not result in upregulation”; with GADD34 mRNA (OCUM cells) (24 hours, listed as Mitomycin C), “did not show any band”; in the experiment on GADD34 mRNA (OCUM cells) (48 hours) it was “did not show any GADD34,band; also recorded: failed to demonstrate the presence of GADD34 mRNA”. Moreover, the “MMC alone, dose needed to kill fraction affected” value in the experiment on MKN-45-P cells (Fa 10%) is recorded as 0.014 ug/cc; in the experiment on MKN-45-P cells (Fa 20%) it was 0.027 ug/cc; with MKN-45-P cells (Fa 30%) it was 0.040 ug/cc; with MKN-45-P cells (Fa 40%) it was 0.056 ug/cc; with MKN-45-P cells (Fa 50%), 0.077 ug/cc; in the experiment with MKN-45-P cells (Fa 60%), 0.105 ug/cc. Moreover, the “MMC alone, dose needed to kill fraction affected” value stood at 0.147 ug/cc in the experiment with MKN-45-P cells (Fa 70%); 0.222 ug/cc in the experiment with MKN-45-P cells (Fa 80%); 0.413 ug/cc in the experiment with MKN-45-P cells (Fa 90%); 0.732 ug/cc in the experiment with MKN-45-P cells (Fa 95%); 0.009 ug/cc in the experiment on OCUM-2MD3 cells (Fa 10%); 0.014 ug/cc in the experiment on OCUM-2MD3 cells (Fa 20%). Further, the “MMC alone, dose needed to kill fraction affected” value in the experiment on OCUM-2MD3 cells (Fa 30%) is listed as 0.017 ug/cc; with OCUM-2MD3 cells (Fa 40%), 0.021 ug/cc; in the experiment with OCUM-2MD3 cells (Fa 50%) it was 0.026 ug/cc; in the experiment with OCUM-2MD3 cells (Fa 60%) it was 0.031 ug/cc; in the experiment with OCUM-2MD3 cells (Fa 70%) it was 0.038 ug/cc; in the experiment on OCUM-2MD3 cells (Fa 80%) it was 0.048 ug/cc. Further, the “MMC alone, dose needed to kill fraction affected” value in the experiment on OCUM-2MD3 cells (Fa 90%) was determined as 0.070 ug/cc; in the experiment on OCUM-2MD3 cells (Fa 95%), 0.100 ug/cc. Besides, the “Dose lowering when given as combination therapy” value in the experiment with MKN-45-P cells (combination of MMC and G207) is 2-9 fold.
